Source: publication PMC9127750, “Structure-based design of CDC42 effector interaction inhibitors for the treatment of cancer” (Cell reports, 2022)
Where “and” joins values, the source holds several entries; their conditions need not be identical. Equal entries are not always repeated.

Tested on: WM3248 melanoma cells, 486 antibodies
Test: Reverse phase protein arrays (RPPA)
Type: cell-based, Human
Description: Pellets were snap frozen in liquid nitrogen and shipped to MD Anderson Cancer Center core RPPA facility for RPPA analysis (Table S5). Three biological replicates for each sample were generated.
Nomenclatures on the RPPA heatmaps: name_of_antibody.species_of_antibody.status_of_antibody. V - antibody validated; C - validation of antibody in progress; Q - antibody nonspecific; E – under evaluation; antibodies raised in M - mouse, G - goat, R - rabbit, or T - rat.

CN(C)c1cccc(Nc2cc(-c3ccccc3)nc(C3CCNCC3)n2)c1 [ARN22089, N1,N1-dimethyl-N3-(6-phenyl-2-(piperidin-4-yl)pyrimidin-4-yl)benzene-1,3-diamine]
RPPA DNMT1.R.V (20 uM, single samples): 0.983 and 0.756 and 0.985 | RPPA DRP1.R.V (20 uM, single samples): 0.965 | RPPA DUSP6.R.C (20 uM, single samples): 1.060 and 1.859 and 1.429 | RPPA DYRK1B.R.C (20 uM, single samples): 1.009 and 1.052 and 0.953 | RPPA Dvl3.R.V (20 uM, single samples): 0.950 and 1.123 | RPPA E2F1.R.V (20 uM, single samples): 1.419 and 1.315 and 0.981 | RPPA E.Cadherin.R.V (20 uM, single samples): 0.828 and 1.005 | RPPA EGFR.R.V (20 uM, single samples): 1.031 and 1.102 and 1.106 | RPPA EGFR_pY1068.R.C (20 uM, single samples): 0.990 and 0.986 | RPPA EGFR_pY1173.R.V (20 uM, single samples): 1.027 and 1.077 and 1.112 | RPPA EMA.M.C (20 uM, single samples): 0.905 and 0.939 and 0.944 | RPPA ENY2.M.C (20 uM, single samples): 0.965 and 0.851 and 0.977 | RPPA ER.a.R.V (20 uM, single samples): 0.767 and 0.993 and 1.203 | RPPA ERCC1.R.C (20 uM, single samples): 1.137 and 1.100 and 0.957 | RPPA ERCC5.R.C (20 uM, single samples): 1.157 and 0.901 and 0.984 | RPPA ERRalpha.R.V (20 uM, single samples): 0.962 and 1.097 and 0.968 | RPPA EVI1.R.V (20 uM, single samples): 1.169 and 1.023 and 0.918 | RPPA Elk1_pS383.R.C (20 uM, single samples): 1.006 and 1.163 and 1.131 | RPPA Enolase.1.R.V (20 uM, single samples): 1.058 and 0.770 and 0.988 | RPPA Enolase.2.R.V (20 uM, single samples): 1.052 and 0.967 and 0.953 | RPPA EphA2.R.V (20 uM, single samples): 0.650 and 0.867 and 0.932 | RPPA EphA2_pY588.R.C (20 uM, single samples): 1.102 and 1.013 and 0.933 | RPPA Erk5.R.V (20 uM, single samples): 0.870 and 0.876 | RPPA Ets.1.R.V (20 uM, single samples): 1.428 and 0.989 | RPPA FABP5.R.C (20 uM, single samples): 1.054 and 0.987 and 1.035 | RPPA FAK.R.C (20 uM, single samples): 0.799 and 1.003 and 1.205 | RPPA FAK_pY397.R.V (20 uM, single samples): 0.986 and 1.046 and 0.989 | RPPA FANCD2.R.V (20 uM, single samples): 0.998 and 0.872 and 0.901 | RPPA FASN.R.V (20 uM, single samples): 1.033 and 0.807 and 0.695 | RPPA FGF.basic.R.C (20 uM, single samples): 0.959 and 0.928 | RPPA FN14.R.C (20 uM, single samples): 0.830 and 1.031 and 1.337 | RPPA FOXM1.R.V (20 uM, single samples): 1.401 and 0.852 and 0.917 | RPPA FOXO3.R.V (20 uM, single samples): 1.030 and 0.990 | RPPA FRS2.alpha_pY196.R.V (20 uM, single samples): 0.974 and 1.050 and 1.002 | RPPA FTO.R.V (20 uM, single samples): 1.174 and 0.828 and 0.929 | RPPA Fibronectin.R.V (20 uM, single samples): 0.643 and 1.194 and 1.130 | RPPA FoxO3a_pS318_S321.R.C (20 uM, single samples): 1.008 and 0.941 | RPPA G6PD.R.V (20 uM, single samples): 0.989 and 0.985 and 0.975 | RPPA GATA3.M.V (20 uM, single samples): 1.212 and 0.968 | RPPA GATA6.R.V (20 uM, single samples): 1.033 and 0.956 and 0.952 | RPPA GCLC.R.C (20 uM, single samples): 0.868 and 1.160 | RPPA GCLM.R.V (20 uM, single samples): 1.077 and 0.945 and 0.973 | RPPA GCN5L2.R.V (20 uM, single samples): 0.869 and 0.957 | RPPA GGPS1.M.V (20 uM, single samples): 1.005 and 0.891 and 0.957 | RPPA GRB2.R.V (20 uM, single samples): 0.953 and 0.884 and 1.030 | RPPA GRB7.R.V (20 uM, single samples): 0.848 and 1.110 and 1.171 | RPPA GSK.3B.R.C (20 uM, single samples): 0.916 and 0.817 and 0.970 | RPPA GSK.3a.b.M.V (20 uM, single samples): 1.009 and 0.884 and 0.977 | RPPA GSK.3a.b_pS21_S9.R.V (20 uM, single samples): 0.956 and 1.173 and 1.028 | RPPA Gab2.R.V (20 uM, single samples): 1.465 and 0.881 and 0.921 | RPPA Gli1.R.C (20 uM, single samples): 0.959 and 0.928 and 0.972 | RPPA Gli3.R.C (20 uM, single samples): 1.201 | RPPA Glucocorticoid.Receptor.R.V (20 uM, single samples): 1.195 and 1.220 and 0.975 | RPPA Glutamate.D1.2.R.V (20 uM, single samples): 1.284 and 0.987 and 1.014 | RPPA Glutaminase.R.C (20 uM, single samples): 1.004 and 0.974 and 1.096 | RPPA Granzyme.B.R.V (20 uM, single samples): 1.019 and 1.152 and 1.098 | RPPA Grp75.R.C (20 uM, single samples): 1.682 and 0.883 and 0.952 | RPPA Gys.R.V (20 uM, single samples): 0.810 and 1.025 and 1.174 | RPPA Gys_pS641.R.V (20 uM, single samples): 0.658 and 0.955 | RPPA H2AX_pS140.M.C (20 uM, single samples): 1.144 and 1.344 and 0.957 | RPPA HER2.M.V (20 uM, single samples): 1.022 and 0.960 | RPPA HER2_pY1248.R.V (20 uM, single samples): 1.010 and 1.097 | RPPA HER3.R.V (20 uM, single samples): 1.052 and 0.876 and 0.821 | RPPA HER3_pY1289.R.C (20 uM, single samples): 1.023 and 0.933 | RPPA HES1.R.V (20 uM, single samples): 0.979 and 1.109 and 1.059 | RPPA Heregulin.R.V (20 uM, single samples): 0.854 and 1.034 and 1.150 | RPPA eEF2.R.C (20 uM, single samples): 1.353 and 0.930 and 0.976 | RPPA eEF2K.R.V (20 uM, single samples): 1.420 and 1.250 and 1.117 | RPPA eIF4E.R.V (20 uM, single samples): 0.957 and 1.295 and 1.239 | RPPA eIF4E_pS209.R.V (20 uM, single samples): 0.903 and 1.310 | RPPA eIF4G.R.C (20 uM, single samples): 1.450 and 0.906 and 0.991 | DNMT1.R.V Norm_5 Average (5, average, normalized to 0): 1.028 | DRP1.R.V Norm_5 Average (5, average, normalized to 0): 1.024 | DUSP4.R.V Norm_5 Average (5, average, normalized to 0): 1.106 | DUSP6.R.C Norm_5 Average (5, average, normalized to 0): 1.186 | DYRK1B.R.C Norm_5 Average (5, average, normalized to 0): 0.920 | Dvl3.R.V Norm_5 Average (5, average, normalized to 0): 0.989 | E2F1.R.V Norm_5 Average (5, average, normalized to 0): 0.971 | E.Cadherin.R.V Norm_5 Average (5, average, normalized to 0): 0.851 | EGFR.R.V Norm_5 Average (5, average, normalized to 0): 1.030 | EGFR_pY1068.R.C Norm_5 Average (5, average, normalized to 0): 0.934 | EGFR_pY1173.R.V Norm_5 Average (5, average, normalized to 0): 1.022
